Measured values reported in patent publication US20240307345A1, “R-MDMA and S-MDMA TO ASSIST PSYCHOTHERAPY” (Universitatsspital Basel, priority 2022, published 2024).

How the values were obtained:
healthy subjects [1] = assay: Mood after effects day 1-3 (BDI score, SCL-90-R GSI score); format: in vivo, human
Procedure: (§1) Study design: The present study compares the acute subjective, physiological and endocrine effects of S-MDMA (125 mg), R-MDMA (125 and 250 mg), MDMA (125 mg) using a placebo-controlled double-blind 5-period cross-over design in 24 healthy subjects. Conditions are 1.) R-MDMA 125 mg, 2). R-MDMA 250 mg, 3) S-MDMA 125 mg, 4) MDMA 125 mg, 5) placebo. Treatment order is counterbalanced. Washout periods between substance administrations are at least 10 days. Study days include a 10-hour study session with a subsequent single measurement (short visit) the next morning (24 hours after drug administration).
Psychometric assessments: Visual Analog Scale (VAS): VASs is repeatedly used to assess subjective alterations in consciousness over time. Single scales are presented as 100 mm horizontal lines marked with “not at all” on the left and “extremely” on the right. […] Each item of the scale is scored on a 0-100 mm VAS. The attribution of the individual items to the subscales of the 5D-ASC is analyzed according to (Studerus et al., 2010). […]

animals = conditions: various animal studies; cited from earlier work
[2] = mice; cited from earlier work
healthy subjects [3] = assay: Acute subjective effects on the Visual Analog Scale (VAS); format: in vivo, human
Procedure: as §1
Study procedures: The study takes place at the University Hospital Basel. Each of the test sessions last from 8:00 until 18:00 with a short visit the next morning (24 hours after application). An indwelling intravenous catheter is inserted into a subcutaneous vein of the forearm and baseline psychometric measures are obtained. Administration of the substance is at 9:00. Outcome measures (see below) are repeatedly assessed during the study session. Subjects are under continuous medical supervision until any alterations of consciousness have completely subsided and they leave the research facility.
Psychometric assessments: Visual Analog Scale (VAS): VASs is repeatedly used to assess subjective alterations in consciousness over time. Single scales are presented as 100 mm horizontal lines marked with “not at all” on the left and “extremely” on the right. The following VAS items are used: “any drug effect”, “good drug effect”, “bad drug effect”, “stimulated”, “liking”, “happy”, “content”, “talkative”, “open”, “trust”, “feeling close to others”, “anxiety”, “alteration of vision”, “alterations of hearing”, “sounds seem to influence what I see”, “alteration of sense of time”, “the boundaries between myself and my surroundings seem to blur”, “want to be with other people”, and “want to be alone”. Scales are administered before and repeatedly after substance administration and take approximately 2 minutes to fill out. The maximal ratings (Emax, 0-100) and areas under the effect-time curve (AUEC) are defined for each VAS and Emax and AUEC values compared between treatments using analysis of variance. 5-Dimensions of Altered States of Consciousness (5D-ASC): The 5 Dimensions of Altered States of Consciousness (5D-ASC) Scale is a questionnaire containing visual analog scales for 94 items (Studerus et al., 2010). The instrument contains five scales assessing mood, anxiety, derealization, depersonalization, changes in perception, auditory alterations, and reduced vigilance. The scale is well-validated (Studerus et al., 2010) and used internationally to evaluate effects of many other psychoactive substances. The overall psychedelic experience is reflected by the total […] score. Each item of the scale is scored on a 0-100 mm VAS. The attribution of the individual items to the subscales of the 5D-ASC is analyzed according to (Studerus et al., 2010). The 5D-ASC scale is administered once at the end of the session and subjects are instructed to retrospectively rate peak alterations that have been experienced during the study session. Adiective Mood Rating Scale (AMRS): The Adjective Mood Rating Scale (AMRS or EWL60S) is a 60-item Likert scale that allows repeated assessment of mood in 6 dimensions: Activation, inactivation, well-being, anxiety/depressed mood, extra- and introversion, and emotional excitability. The German EWL60S version is used. The AMRS consists of subscales measuring “activation,” “positive mood,” “extraversion,” “introversion,” “inactivation,” and “emotional excitability. The scale has previously been used to evaluate effects of many other psychoactive substances. Emax and AUEC scores will be defined for each subscale and compared between treatments using analysis of variance. The AMRS is administered repeatedly throughout the study session and once 3 days after each session. […]

Row | SMILES | mood after administration (healthy subjects [1]; R-MDMA compared with S-MDMA) | social interaction (animals) | enantiomer converted to the other enantiomer after administration [2] [%] | VAS Emax for “feeling high” (healthy subjects [3]; 250 mg R-MDMA compared with 125 mg (±)-MDMA, 24 subjects) | VAS “drug high”, “happy”, “content”, “talkative”, “open”, “trust” and “I feel close to others” (healthy subjects [3]; 250 mg R-MDMA versus (±)-MDMA and S-MDMA) | BDI and GSI scores (healthy subjects [1]; 125 mg, one to three days after substance administration) | how much stimulated participants felt (healthy subjects [3]; 125 mg S-MDMA compared to (±)-MDMA) | how much stimulated participants felt (healthy subjects [3]; 125 mg S-MDMA compared to both doses of R-MDMA) | VAS Emax for “bad drug effects,” “alteration of vision” and “audio-visual synesthesia” (healthy subjects [3]; 125 mg S-MDMA compared with 125 mg (±)-MDMA, 24 subjects) | VAS items “alteration of vision” and “audio-visual synesthesia” (healthy subjects [3]; 125 mg S-MDMA compared with both R-MDMA doses and (±)-MDMA) | all VAS items except “fear” (healthy subjects [3]; 125 mg S-MDMA versus 250 mg R-MDMA) | VAS “any drug effects”, “good drug effects”, “I like the effect”, “stimulation”, “alteration of time” and “ego dissolution” (healthy subjects [3]; 125 mg S-MDMA versus 125 and 250 mg R-MDMA) | VAS “bad drug effects,” “alteration of vision” and “audio-visual synesthesia” (healthy subjects [3]; 125 mg S-MDMA versus (±)-MDMA and 250 mg R-MDMA) | VAS “talkative,” “open,” “trust,” and “I feel close to others” (healthy subjects [3]; 125 mg, compared with both R-MDMA doses and placebo) | feelings of “drug high” (healthy subjects [3]; S-MDMA compared with R-MDMA, abuse potential)
1 | CN[C@H](C)Cc1ccc2c(c1)OCO2 [R-MDMA, R(−)-MDMA] | did not depress mood after administration | Increased social interaction | 3.5 | lower Emax values | lower effects |  |  |  |  |  |  |  |  |  | 
2 | CN[C@@H](C)Cc1ccc2c(c1)OCO2 [S-MDMA, S(+)-MDMA] |  | only slightly with S-MDMA or not at all | 9.9 |  |  | only increased | no significant difference | higher values | higher Emax values | higher increases | significant stronger effects | more than 125 and 250 mg R-MDMA | stronger | higher values | greater
